ChEMBL document CHEMBL1201862, “PubChem BioAssay data set” (2004)
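Results reflect a 48-hour exposure of cells in 96-well plates to compound at five concentrations. GI50 marks 50% less growth.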 Active and inactive are the calls of the source. Cut-off read from the data, not from the text of the source: active = GI50 up to about 1.1 µM and inactive = higher.

Experiments:
Assay in all cases: NCI anticancer screen, dose series, 48 h
UACC-62 = tested on: UACC-62
SNB-75 = tested on: SNB-75
SK-MEL-2 = tested on: SK-MEL-2
SK-OV-3 = tested on: SK-OV-3
NCI-H226 = tested on: NCI-H226
U-251 = tested on: U-251
UO-31 = tested on: UO-31
IGROV-1 = tested on: IGROV-1
HOP-62 = tested on: HOP-62
SW-620 = tested on: SW-620
LOX IMVI = tested on: LOX IMVI
MDA-MB-435 = tested on: MDA-MB-435
ACHN = tested on: ACHN
OVCAR-5 = tested on: OVCAR-5
Malme-3M = tested on: Malme-3M
SF-539 = tested on: SF-539
PC-3 = tested on: PC-3
MDA-N = tested on: MDA-N
HCC 2998 = tested on: HCC 2998

| SMILES | GI50 (UACC-62) | GI50 (SNB-75) | GI50 (SK-MEL-2) | GI50 (SK-OV-3) | GI50 (NCI-H226) | GI50 (U-251) | GI50 (UO-31) | GI50 (IGROV-1) | GI50 (HOP-62) | GI50 (SW-620) | GI50 (LOX IMVI) | GI50 (MDA-MB-435) | GI50 (ACHN) | GI50 (OVCAR-5) | GI50 (Malme-3M) | GI50 (SF-539) | GI50 (PC-3) | GI50 (MDA-N) | GI50 (HCC 2998) |
| --- | --- | --- | --- | --- | --- | --- | --- | --- | --- | --- | --- | --- | --- | --- | --- | --- | --- | --- | --- |
| CC[C@]1(Cc2ccc(OC)c(OC)c2)[C@@H]2C[C@@H](C(=O)OC)ON2O[C@H](OC2CCCC2(c2ccccc2)c2ccccc2)[C@@H]1OC(C)=O (some centres undefined) | > 100 µM (inactive) | > 100 µM (inactive) | > 100 µM (inactive) | > 100 µM (inactive) | > 100 µM (inactive) | > 100 µM (inactive) | > 100 µM (inactive) | > 100 µM (inactive) | > 100 µM (inactive) | > 100 µM (inactive) | > 100 µM (inactive) | > 100 µM (inactive) | > 100 µM (inactive) | > 100 µM (inactive) |  |  |  |  |  |
| COc1nc2c(c(=O)n1C)N[C@H]1[C@H](OC(C)=O)[C@@H](OC(C)=O)CO[C@H]1N2 | > 100 µM (inactive) | > 100 µM (inactive) | > 100 µM (inactive) | > 100 µM (inactive) | > 100 µM (inactive) | > 100 µM (inactive) | > 100 µM (inactive) | > 100 µM (inactive) | > 100 µM (inactive) | > 100 µM (inactive) | > 100 µM (inactive) | > 100 µM (inactive) | > 100 µM (inactive) | > 100 µM (inactive) | > 100 µM (inactive) | > 100 µM (inactive) | > 100 µM (inactive) | > 100 µM (inactive) |  |
| O=C(O)C1=CN(c2ccncc2)C(c2ccco2)=CC1c1ccccc1[N+](=O)[O-] (centres undefined) | 15.6 µM (inactive) | 7.36 µM (inactive) | 15.7 µM (inactive) | 16.3 µM (inactive) | 4.72 µM (inactive) | 6.31 µM (inactive) | 10.4 µM (inactive) | 2 µM (inactive) | 13.8 µM (inactive) | 10.2 µM (inactive) | 1.97 µM (inactive) | 15.1 µM (inactive) | 2.1 µM (inactive) | 7.13 µM (inactive) | 9.53 µM (inactive) | 3.11 µM (inactive) | 13.9 µM (inactive) |  | 1.82 µM (inactive) |
| COC(=O)C(Cc1ccccc1)NC(=O)C(CCC(=O)OCc1ccccc1)NC(=O)OC(C)(C)C (centres undefined) | > 100 µM (inactive) | > 100 µM (inactive) | > 100 µM (inactive) | > 100 µM (inactive) | 57.4 µM (inactive) | > 100 µM (inactive) | 26.1 µM (inactive) | > 100 µM (inactive) | > 100 µM (inactive) | 63.8 µM (inactive) | 30.3 µM (inactive) | > 100 µM (inactive) | 68.9 µM (inactive) | > 100 µM (inactive) | > 100 µM (inactive) | > 100 µM (inactive) | 81.7 µM (inactive) |  | 31 µM (inactive) |
| OC[C@H](O)[C@@H](OCc1ccccc1)[C@H](NCc1ccccc1)c1cccs1 | > 100 µM (inactive) | 65.3 µM (inactive) | > 100 µM (inactive) | > 100 µM (inactive) | > 100 µM (inactive) | > 100 µM (inactive) | 15.5 µM (inactive) | 75.5 µM (inactive) | > 100 µM (inactive) | > 100 µM (inactive) | > 100 µM (inactive) | > 100 µM (inactive) | > 100 µM (inactive) | > 100 µM (inactive) | > 100 µM (inactive) | > 100 µM (inactive) | 98.4 µM (inactive) | > 100 µM (inactive) |  |
| CCCCc1c2c([n+]([O-])c3c1CCCC3)CCCC2 |  |  |  | 98.4 µM (inactive) | > 100 µM (inactive) | > 100 µM (inactive) | 61.1 µM (inactive) | 43.1 µM (inactive) | > 100 µM (inactive) | > 100 µM (inactive) | > 100 µM (inactive) |  | 5.12 µM (inactive) |  | > 100 µM (inactive) | > 100 µM (inactive) |  |  | > 100 µM (inactive) |
| COc1ccc2c(c1)[C@@]13CCCC[C@H]1[C@@H](C2)N(C)CC3=O | 16.9 µM (inactive) |  | 25.2 µM (inactive) | 16 µM (inactive) | 21.3 µM (inactive) | 22.2 µM (inactive) | 18.7 µM (inactive) | 17.4 µM (inactive) | > 100 µM (inactive) |  | 16.9 µM (inactive) | 19 µM (inactive) | 16.6 µM (inactive) | 17.3 µM (inactive) | 18.5 µM (inactive) |  | 14.8 µM (inactive) | 15.3 µM (inactive) | 16.8 µM (inactive) |
| COC(C)(C)/C=C/c1[nH]c2ccccc2c1CC(=O)NCCc1cn(C(c2ccccc2)(c2ccccc2)c2ccccc2)cn1 | 6.44 µM (inactive) |  | 2.64 µM (inactive) |  | 3.65 µM (inactive) | 4.45 µM (inactive) | 5.77 µM (inactive) | 5.4 µM (inactive) | 5.92 µM (inactive) | 4.23 µM (inactive) | 4.82 µM (inactive) | 3.62 µM (inactive) | 4.53 µM (inactive) | 3.66 µM (inactive) | 3.76 µM (inactive) | 4.13 µM (inactive) | 3.44 µM (inactive) | 4.33 µM (inactive) | 0.0272 µM (active) |
| O=C1CCCc2cc3c(cc21)CCC3C(=O)O (centres undefined) | > 100 µM (inactive) | > 100 µM (inactive) | > 100 µM (inactive) | > 100 µM (inactive) | > 100 µM (inactive) | > 100 µM (inactive) | > 100 µM (inactive) | > 100 µM (inactive) | > 100 µM (inactive) | > 100 µM (inactive) | > 100 µM (inactive) |  | > 100 µM (inactive) | > 100 µM (inactive) | > 100 µM (inactive) | > 100 µM (inactive) | > 100 µM (inactive) | > 100 µM (inactive) | > 100 µM (inactive) |
| CCN(CC)c1ccc(/C=c2\nc(-c3ccccc3)n3c2nc2ccccc23)cc1 | 10.5 µM (inactive) |  | 15.4 µM (inactive) | 24.4 µM (inactive) | 14.5 µM (inactive) | 2.1 µM (inactive) | 13.5 µM (inactive) | 7.82 µM (inactive) | 7.19 µM (inactive) | 4.7 µM (inactive) | 2.04 µM (inactive) | 8.71 µM (inactive) | 15 µM (inactive) | 77.3 µM (inactive) | 13 µM (inactive) | 1.48 µM (inactive) | 1.93 µM (inactive) | 6.25 µM (inactive) | 2.72 µM (inactive) |
| Cc1ccc(NC(=O)/C(Cc2cc(=O)oc3cc(O)ccc23)=N\NC(C)(C)C)cc1C | > 100 µM (inactive) |  | > 100 µM (inactive) | > 100 µM (inactive) | > 100 µM (inactive) | > 100 µM (inactive) | > 100 µM (inactive) |  |  | > 100 µM (inactive) | > 100 µM (inactive) | > 100 µM (inactive) | > 100 µM (inactive) |  |  | > 100 µM (inactive) | > 100 µM (inactive) | > 100 µM (inactive) | 29.4 µM (inactive) |
| Cc1ccc2oc3c(c(Br)c(Br)n3C)c(=O)c2c1 | 19.6 µM (inactive) |  | 25.8 µM (inactive) |  | 15.6 µM (inactive) | 18.2 µM (inactive) | 13.9 µM (inactive) | 10.5 µM (inactive) | 17 µM (inactive) | > 100 µM (inactive) | 31.3 µM (inactive) | > 100 µM (inactive) | 16.7 µM (inactive) | 41.6 µM (inactive) | 24.7 µM (inactive) | 20 µM (inactive) | 35 µM (inactive) |  |  |
| COc1cc2oc(-c3ccc(O)cc3)cc(=O)c2c(OC)c1O | 99.5 µM (inactive) | 14.5 µM (inactive) | > 100 µM (inactive) | 30.5 µM (inactive) | > 100 µM (inactive) | 38.9 µM (inactive) | 33.2 µM (inactive) | 57.3 µM (inactive) | 29.2 µM (inactive) | > 100 µM (inactive) | 60.5 µM (inactive) | > 100 µM (inactive) | 32.7 µM (inactive) | > 100 µM (inactive) | > 100 µM (inactive) | > 100 µM (inactive) |  | > 100 µM (inactive) | 96.8 µM (inactive) |
| CN(C)CCCN1c2ccccc2CCc2cc([N+](=O)[O-])ccc21 | 14.5 µM (inactive) |  | 21.1 µM (inactive) |  | 24 µM (inactive) | 26.3 µM (inactive) | 22.2 µM (inactive) | 20.3 µM (inactive) | 21.8 µM (inactive) |  | 19.1 µM (inactive) | 21.6 µM (inactive) | 29.4 µM (inactive) | 25.5 µM (inactive) | 18.8 µM (inactive) | 24.1 µM (inactive) | 25.4 µM (inactive) | 19.6 µM (inactive) | 17.7 µM (inactive) |
| CC[C@H]1C=CCC[C@@]2(C[C@@H]3CC[C@@H]4[C@H](C(=O)OCCCCCCCCCCCCCCCC(=O)N(CCCN)C[C@@H](O)CCN)[C@]5(CCC[C@@H](C)O5)NC(=[N+]34)N2)O1 | 0.0678 µM (active) |  | 0.229 µM (active) | 2.05 µM (inactive) | 0.968 µM (active) | 0.381 µM (active) | 0.337 µM (active) | 0.239 µM (active) | 1.13 µM (inactive) | 0.352 µM (active) | 0.248 µM (active) | 0.0524 µM (active) | 0.349 µM (active) | 0.083 µM (active) | 0.245 µM (active) | 0.556 µM (active) | 0.385 µM (active) | 0.127 µM (active) | 0.175 µM (active) |
| CC(=O)OC1OC2C(NC(=O)OC(C)(C)C)C1CC2(OCc1ccccc1)OCc1ccccc1 (centres undefined) | 19 µM (inactive) | 36.2 µM (inactive) | 19.8 µM (inactive) | 28.3 µM (inactive) | 24.7 µM (inactive) | 14.4 µM (inactive) | 13.1 µM (inactive) | 27 µM (inactive) | 28.2 µM (inactive) | 32.8 µM (inactive) | > 10 µM (inactive) |  | 22.4 µM (inactive) | 28.3 µM (inactive) | 14.4 µM (inactive) | 18.1 µM (inactive) |  |  | 21.6 µM (inactive) |
